# Source: patent US4180505A, “Novel steroidspirooxazolidines and process for their preparation” (Richter Gedeon Vegyeszet, Gyar RT, priority 1977, dated 1979)
# How the values were obtained:
# [1] = test system: aldosterone; test: Aldosterone antagonist effect in adrenalectomized DOCA-treated rats, urinary Na+/K+ (method of C. M. Kagawa); format: in vivo; conditions: for Activity related to Spironolactone: Spironolactone = 1.0
# Experimental: M. Kagawa [C. M. Kagawa et al., J. Pharmacol. Exp. Ther. 126, 123 (1959)].
# 18 hours after the removal of their suprarenal glands, desoxycorticosterone acetate (DOCA) was administered to groups of rats which were simultaneously treated with the test and, respectively, the reference compounds. The reference compound, i.e. Spironolactone (17α-carboxyethyl-17β-hydroxy-7α-acetylthioandrost-4-en-3-one-lactone), was administered orally in a dose of 480 μg./animal. The Na^+ and K^+ concentrations in the urine of the treated animals were determined by flame photometry. Evaluation was made on the basis of the Na^+ /K^+ proportions.
# [2] = test system: vesicula seminalis gland (weight increase induced by testosterone propionate); test: Antiandrogenic activity in castrated testosterone propionate-treated male mice, vesicula seminalis weight (modified method of Dorfman); format: in vivo
# Experimental: The antiandrogenic activity of the compounds according to the invention--anundesirable side-effect exerted by spironolactone during protracted treating--was tested by the modified method of Dorfman (R. Dorfman: Steroids 2, 185 (1963).
# Castrated male mice weighing 25 to 30 g. each were treated with testosterone propionate (T.P.) in every second day. The total dose amounted to 300 μg./2 weeks/animal. The test compounds were administered parallel with the T. […] The antiandrogenic activity of a given test compound was expressed in %. If the increase in weight of the vesicula seminalis gland induced by T.P. is 100%, subtracting the weight-increase induced by the combination of T.P. and the test compound from 100, the percentage inhibition is obtained.
# Each group of test amimals consisted of from 8 to 10 mice.
# [3] = Rattus norvegicus, po, 480 μg/animal p.o., read-out: DOCA blocking activity
# [4] = Rattus norvegicus, po, 960 μg/animal p.o., read-out: DOCA blocking activity
# [5] = 5.0 mg/2 weeks/animal s.c., with testosterone propionate
# [6] = 10.0 mg/2 weeks/animal s.c., with testosterone propionate
Compound,"log (Na × 10 / K), X ± S ([1]; 480 μg/animal p.o., with DOCA)",Activity related to Spironolactone ([1]; 480 μg/animal p.o.),"log (Na × 10 / K), X ± S ([1]; 960 μg/animal p.o., with DOCA)","inhibition in vivo at 0.48 mg [1, 3]","inhibition in vivo at 0.96 mg [1, 4]","+ Stimulation, % / - Inhibition, % [2, 5]","Increase in weight of vesicula seminalis [2, 5]",also measured
CC[C@]12CC[C@H]3[C@@H](CCC4=CC(=O)CC[C@@H]43)[C@@H]1CC[C@@]21CN(C)C(=O)O1 [13β-Ethyl-4-en-3-one-17S-spiro-5'-(2'-oxo-3'-methyloxazolidine)],1.13,0.93,1.16,45%,49%,,,"log (Na × 10 / K), X ± S ([1]; 1920 μg/animal p.o., with DOCA): 1.30; inhibition in vivo at 1.92 mg ([1]; Rattus norvegicus, po, 1920 μg/animal p.o., read-out: DOCA blocking activity): 67%"
"CN1C[C@@]2(CC[C@H]3[C@@H]4C=C[C@]56C[C@@H](O)CC[C@]5(C6)[C@H]4CC[C@@]32C)OC1=O [3β-Hydroxy-5β,19-cycloandrost-6-ene-17S-spiro-5'-(2'-oxo-3'-methyloxazolidine)]",1.18,0.98,1.23,51%,58%,,,
"C/C=C\N1C[C@@]2(CC[C@H]3[C@@H]4CCC5=C(CC=C(OC)C5)[C@H]4CC[C@@]32CC)OC1=O [13β-Ethyl-3-methoxygona-2,5(10)-diene-17S-spiro-5'-(2'-oxo-3'-(1""-cis-propenyl)-oxazolidine)]",1.16,0.96,1.22,49%,56%,+12.5%,112.5%,
CN1C[C@@]2(CC[C@H]3[C@@H]4CC=C5C[C@@H](F)CC[C@]5(C)[C@H]4CC[C@@]32C)OC1=O [3β-Fluoroandrost-5-ene-17S-spiro-5'-(2'-oxo-3'-methyloxazolidine)],0.98,0.80,1.13,26%,45%,,,
"CCC(=O)O[C@H]1CC[C@H]2[C@@H]3CCC4=CC(=O)CC[C@]4(C)[C@H]3CC[C@]12C [Testosterone propionate, testosterone propionate, reference compound]",,,,,,,,"Increase in weight of vesicula seminalis ([2]; testosterone propionate, 0.3 mg/2 weeks/animal): 100%"
CC[C@]12CC[C@@H]3C4=C(CC[C@H]3[C@@H]1CC[C@@]21CN(C)C(=O)O1)CC(=O)CC4 [13β-Ethylgon-5(10)-en-3-one-17S-spiro-5'-(2'-oxo-3'-methyloxazolidine)],1.02,0.84,1.34,31%,71%,+14.0%,114.0%,
CN1C[C@@]2(CC[C@H]3[C@@H]4CCC5=CC(=O)CC[C@@H]5[C@H]4CC[C@@]32C)OC1=O [Oestr. 4-en-3-one-17S-spiro-5'-(2'-oxo-3'-methyloxazolidine)],1.26,1.04,1.12,61%,44%,+13.0%,113.0%,
"CN1C[C@@]2(CC[C@H]3[C@@H]4C=CC5=CC(=O)CC[C@]5(C)[C@H]4CC[C@@]32C)OC1=O [Androst-4,6-dien-3-one-17S-spiro-5'-(2'-oxo-3'-methyloxazolidine)]",1.14,0.94,1.74,46%,123%,-1.4%,98.6%,
CC[C@]12CC[C@H]3[C@@H](CCC4=CC(=NOC)CC[C@@H]43)[C@@H]1CC[C@@]21CN(C)C(=O)O1 [13β-Ethyl-3-methoxyiminogon-4-ene-17S-spiro-5'-(2'-oxo-3'-methyloxazolidine)],1.19,0.98,0.97,53%,24%,+15.0%,115.0%,
"CC(=O)S[C@@H]1CC2=CC(=O)CC[C@]2(C)[C@H]2CC[C@@]3(C)[C@@H](CC[C@@]34CCC(=O)O4)[C@H]12 [Spironolactone, 17α-carboxyethyl-17β-hydroxy-7α-acetylthioandrost-4-en-3-one-lactone, reference compound]",1.21,1.0,,54%,,-32.5%,67.5%,"inhibition (antiandrogenic activity) ([2]; 5.0 mg/2 weeks/animal s.c.): 32.5%; inhibition (antiandrogenic activity) ([2]; 10.0 mg/2 weeks/animal s.c.): 50.6%; + Stimulation, % / - Inhibition, % [2, 6]: -50.6%; Increase in weight of vesicula seminalis [2, 6]: 49.4%"
"CC[C@]12C=CC3=C4CCC(=O)C=C4CC[C@H]3[C@@H]1CC[C@@]21CN(C)C(=O)O1 [13β-Ethylgona-4,9(10),11-trien-3-one-17S-spiro-5'-(2'-oxo-3'-methyloxazolidine)]",,,,,,,,"antialdosterone activity ([1]; compared with the compounds listed in Table I, result in words): negligible; inhibition against testosterone propionate (antiandrogenic activity) ([2]; 300 μg/2 weeks/animal, against 300 μg/2 weeks/animal T.P.): 70%"
"CC(=O)OCC(=O)[C@H]1CC[C@H]2[C@@H]3CCC4=CC(=O)CC[C@]4(C)[C@H]3CC[C@]12C [DOCA, Pregn-4-ene-3,20-dion-21-ol-acetate, reference compound]",,,,,,,,"log (Na × 10 / K), X ± S ([1]; DOCA, 12.5 μg/animal s.c.): 0.78"
